This note sets out measurements from ChEMBL document CHEMBL4665834 (J Med Chem, 2020).

Data set [1] can be described thus: Solubility of compound in 0.1 M HCl using crystalline form of sample. In kind it is physicochemical.
A short description of data set [2]: Maximum oral bioavailability in rat hepatocytes based well stirred liver model at 1 uM measured after 2 to 90 mins by LC-MS/MS analysis. In kind it is ADME, Hepatocyte. The settings on record: time 2-90 min, read-out: Fmax.
The target in the next data set is Cytochrome P450 3A4 (Homo sapiens, UniProt P08684). The experiment in a line: Inhibition of CYP3A4 in human liver microsomes using midazolam as substrate incubated for 10 mins in presence of NADPH generating system by LC-MS/MS analysis. (In general: Microsomes from liver hold many membrane-bound enzymes, among them those of drug oxidation.)
The target in data set [3] is Prostaglandin D2 receptor (Homo sapiens, UniProt Q13258). The experiment in a line: Displacement of [3H]PGD2 from full-length recombinant human DP1 receptor expressed in Chem-1 cell membranes measured after 120 mins by scintillation counting method.
Data set [4] deals with Prostaglandin E2 receptor EP4 subtype (Homo sapiens, UniProt P35408). The data set is described as follows: Displacement of [3H]prostaglandin E2 from full-length recombinant human EP4 receptor expressed in HEK293 cell membranes measured after 120 mins by scintillation counting method. For orientation: Displacement assays read how much labelled ligand stays bound in the presence of the test substance.

Data set [5] in a line: Lipophilicity, log D of compound at pH 7.5 by HPLC analysis. The settings on record: buffer.
Data set [6] has as its target Prostaglandin F2-alpha receptor (Mus musculus, UniProt P43117). The data set is described as follows: Antagonist activity at FPR in mouse NIH3T3 cells assessed as inhibition of PGF2alpha-induced cytokine induced neutrophil attracting chemokine production measured after 24 hrs by Bio-Rad assay. Format: cell-based.
The next data set addresses Thromboxane A2 receptor (Homo sapiens, UniProt P21731). The data set is described as follows: Antagonist activity at recombinant full-length human TP receptor expressed in HEK293 cells assessed as inhibition of U-44069-induced response measured after 30 mins by TR-FRET assay. In kind it is cell-based. (Time-resolved FRET reads energy transfer from a long-lived donor to a nearby acceptor.)

Data set [7] can be described thus: Protein binding in pooled dog plasma assessed as unbound fraction incubated for 6 hrs by LC-MS/MS analysis based equilibrium dialysis method. In kind it is ADME, cell-free, Canis lupus familiaris.
A short description of data set [8]: Clearance in Wistar rat at 1 mg/kg, iv administered as bolus dose or 3 mg/kg, po administered via gavage by LC-MS/MS analysis. Format: ADME, organism-based. The settings on record: in vivo.
Data set [9] is described as follows: Terminal half life in Wistar rat at 1 mg/kg, iv administered as bolus dose by LC-MS/MS analysis. Format: ADME, organism-based. The note with it: in vivo, read-out: beta t1/2 (converted).
Data set [10] is described as follows: Oral bioavailability in Wistar rat at 3 mg/kg administered via gavage by LC-MS/MS analysis. In kind it is ADME, organism-based. The settings on record: in vivo.

pIC50: −log10 of the molar value. ≈ marks a conversion by molar mass, not a printed value.

Chain of Prostaglandin F2-alpha receptor (P43117 whole entry): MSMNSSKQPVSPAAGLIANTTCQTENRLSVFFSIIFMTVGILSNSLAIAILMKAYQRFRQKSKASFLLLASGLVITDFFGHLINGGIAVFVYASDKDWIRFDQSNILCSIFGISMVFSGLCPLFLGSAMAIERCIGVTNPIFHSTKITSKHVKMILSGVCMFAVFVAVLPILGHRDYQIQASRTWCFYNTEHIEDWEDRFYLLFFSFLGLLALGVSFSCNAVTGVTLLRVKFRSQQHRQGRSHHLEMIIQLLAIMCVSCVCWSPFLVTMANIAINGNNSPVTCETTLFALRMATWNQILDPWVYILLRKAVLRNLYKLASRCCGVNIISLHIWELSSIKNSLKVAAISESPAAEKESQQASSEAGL
Chain of Prostaglandin D2 receptor (Q13258 whole entry): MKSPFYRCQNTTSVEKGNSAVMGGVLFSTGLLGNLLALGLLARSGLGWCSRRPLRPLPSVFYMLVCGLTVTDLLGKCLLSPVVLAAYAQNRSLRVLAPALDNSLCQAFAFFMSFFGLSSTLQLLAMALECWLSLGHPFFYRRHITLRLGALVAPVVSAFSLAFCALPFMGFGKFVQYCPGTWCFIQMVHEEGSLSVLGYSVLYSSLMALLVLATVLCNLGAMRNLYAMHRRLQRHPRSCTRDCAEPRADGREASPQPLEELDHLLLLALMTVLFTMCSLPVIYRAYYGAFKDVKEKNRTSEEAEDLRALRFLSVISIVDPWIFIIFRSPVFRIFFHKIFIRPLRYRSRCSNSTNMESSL
Chain of Thromboxane A2 receptor (P21731 whole entry): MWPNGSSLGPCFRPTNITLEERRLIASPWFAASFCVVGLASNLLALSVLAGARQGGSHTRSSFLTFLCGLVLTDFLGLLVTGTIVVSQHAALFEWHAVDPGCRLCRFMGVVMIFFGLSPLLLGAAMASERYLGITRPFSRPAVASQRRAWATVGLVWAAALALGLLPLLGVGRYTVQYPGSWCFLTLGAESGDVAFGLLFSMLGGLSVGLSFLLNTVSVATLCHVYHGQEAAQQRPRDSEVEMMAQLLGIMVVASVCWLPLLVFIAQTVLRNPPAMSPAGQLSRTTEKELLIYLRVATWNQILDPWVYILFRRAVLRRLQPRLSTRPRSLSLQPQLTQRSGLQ
Chain of Prostaglandin E2 receptor EP4 subtype (P35408 whole entry): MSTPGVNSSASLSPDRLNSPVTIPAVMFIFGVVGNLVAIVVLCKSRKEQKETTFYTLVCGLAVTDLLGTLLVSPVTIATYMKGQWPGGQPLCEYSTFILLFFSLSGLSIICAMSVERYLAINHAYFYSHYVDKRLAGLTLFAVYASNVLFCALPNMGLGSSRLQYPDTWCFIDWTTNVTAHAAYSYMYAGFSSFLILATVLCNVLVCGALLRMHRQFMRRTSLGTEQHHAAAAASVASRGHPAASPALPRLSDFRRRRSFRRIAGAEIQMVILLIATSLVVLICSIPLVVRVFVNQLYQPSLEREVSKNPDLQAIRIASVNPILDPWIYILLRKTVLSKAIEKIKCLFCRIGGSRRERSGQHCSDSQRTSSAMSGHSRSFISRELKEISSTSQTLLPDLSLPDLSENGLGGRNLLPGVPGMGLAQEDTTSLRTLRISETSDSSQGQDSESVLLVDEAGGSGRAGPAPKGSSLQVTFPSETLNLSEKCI
Chain of Cytochrome P450 3A4 (P08684 whole entry): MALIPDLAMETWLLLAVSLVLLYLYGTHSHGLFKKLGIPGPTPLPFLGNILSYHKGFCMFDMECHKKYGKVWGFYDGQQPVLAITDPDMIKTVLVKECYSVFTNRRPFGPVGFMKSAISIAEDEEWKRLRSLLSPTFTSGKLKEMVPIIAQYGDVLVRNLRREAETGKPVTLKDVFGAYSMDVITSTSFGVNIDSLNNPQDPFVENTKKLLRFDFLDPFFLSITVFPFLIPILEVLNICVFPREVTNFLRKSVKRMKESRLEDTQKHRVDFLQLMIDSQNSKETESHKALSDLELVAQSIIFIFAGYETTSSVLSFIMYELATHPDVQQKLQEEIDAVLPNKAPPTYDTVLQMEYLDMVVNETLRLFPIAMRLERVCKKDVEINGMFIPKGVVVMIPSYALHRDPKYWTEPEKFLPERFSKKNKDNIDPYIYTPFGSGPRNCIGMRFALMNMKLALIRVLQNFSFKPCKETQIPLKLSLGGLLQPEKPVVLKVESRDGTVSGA

In general, solubility refers to the concentration that dissolves in the medium under given conditions. For orientation: pIC50 means −log10 of the IC50, conventionally taken in molar units. In general, logD refers to the decadic logarithm of the distribution of all forms, ionised or not, between an organic phase and buffer at a given pH. For orientation: fraction unbound means free concentration divided by total concentration. As a reminder, the bioavailability is dose-corrected exposure relative to a reference, in per cent. Low readings indicate little systemic uptake, high ones much systemic uptake. Take `Cc1c(N2CCCC2)nc2ccc(Br)cc2c1C(=O)NC[C@H](CCC(=O)O)c1ccccc1Cl` [BAY-6672]: in data set [1], the solubility is 440 µg/mL (≈ 808 µM). In addition, the Fh at 1 µM in data set [2] came to 67%. For the same compound, the pIC50 is below 4.70 on Cytochrome P450 3A4; below 5.00 in data set [3]; below 5.03 in data set [4]; 7.92 in [6]; 5.66 on Thromboxane A2 receptor. The logD in data set [5] was found to be 2.3. The fraction unbound at 6 h in data set [7] is below 0.01. The same compound showed a clearance in [8] of 11.7 mL/min/kg. Besides, the half-life in [9] was 3.8 h. In [10], this compound yielded a bioavailability of 91%.
